# According to patent US8476255B2, “Histone deacetylase inhibitors” (Orchid Chemicals & Pharmaceuticals Limited, priority 2007, dated 2013):
# Assays:
# [1] = system: NCIH460, HCT116 and U251 cells; test: Anti-cancer screen, mean GI50 over cell lines; format: cell-based; details: mean over cell lines; read-out: Cell growth inhibition Mean GI50
# Protocol: (§1) Experimental drugs were screened for anti-cancer activity in three cell lines using five concentrations for each compound. The cell lines —HCT 116 (colon), NCIH460 (lung) and U251 (glioma) were maintained in DMEM containing 10% fetal bovine serum. 96-well microtiter plates are inoculated with cells in 100 μL of cell suspension (5×10^4 cells/mL) for 24 hours at 37° C., 5% CO2, 95% air and 100% relative humidity. A separate plate with these cell lines is also inoculated to determine cell viability before the addition of the compounds (T0).
# (§2) Following 24-hours incubation, test compounds were added to the 96 well plates. Each plate contains one of the above cell lines and the following samples in triplicate: five different dilutions (0.01, 0.1, 1, 10 and 100 μM) of four test compounds, appropriate dilutions of a cytotoxic standard and growth medium (untreated) wells. Test compounds were dissolved in DMSO to prepare 20 mM stock solutions on the day of drug addition and serial dilutions were carried out in complete growth medium at 2× strength such that 100 μL added to wells gave final concentrations (0.01, 0.1, 1, 10 and 100 μM) in the well. SAHA was used as standard drug in these experiments.
# (§3) For T0 measurement, 24 hours after seeding the cells, 20 μL of 3-(4,5-dimethyl-2-thiazolyl)-2,5-diphenyl-2H-tetrazolium (MTT) solution per well was added to the ‘T0’ plate and incubated for 3 hours at 37° C. in a CO2 incubator. The plate containing cells and test compounds was treated similarly after 48 hours of incubation. After 3 hours of MTT addition, well contents were aspirated carefully followed by addition of 150 μL DMSO per well. Plates were agitated to ensure dissolution of the formazan crystals in DMSO and absorbance was read at 570 nm (A570).
# (§4) (Mosmann T. Rapid colorimetric assay for cellular growth and survival: application to proliferation and cytotoxicity assays. J Immunol Methods 1983; 65(1-2): 55-63; Anne Monks et al. Feasibility of high-flux anticancer drug screen using a diverse panel of cultured human tumor cell lines”. JNCI, Vol. 83, No. 11, 1991).
# [2] = system: HDAC (Mouse Liver Extract); test: HDAC inhibition assay using Boc-Lys(Ac)-AMC substrate; format: biochemical; details: mouse liver enzyme
# Protocol: Inhibition of HDAC has been implicated to modulate transcription and to induce apoptosis or differentiation in cancer cells. The fluorometric assay provides a fast and fluorescence based method that eliminates radioactivity, extractions or chromatography, as used in traditional assays. The assay is based on two steps. First, the HDAC fluorometric substrate, which comprises an acetylated lysine side chain, is incubated with a sample containing HDAC activity (Mouse Liver Extract). Deacetylation of the substrate sensitizes the substrate, in the second step; treatment with the Trypsin stop solution produces a fluorophore that can be easily analyzed using fluorescence plate reader. Assay was done in 96-well black microplate and total volume of the assay was […]. […] The plate was pre-incubated at 37° C. for 5 minutes. […] The plate was incubated at 37° C. for 30 min. The reaction was stopped by adding 100 μL, of Trypsin stop solution and incubating at 37° C. for 15-30 min. Measuring the fluorescence at excitation wavelength of 360 nm and emission wavelength of 460 nm monitored the release of AMC. Buffer alone and substrate alone served as blank. […] (Dennis Wegener et al, Anal. Biochem, 321, 2003, 202-208).
# NCIH460 (lung) cells = test: Anti-cancer screen (MTT), NCIH460; format: cell-based; details: Homo sapiens, NCI-H460, NCIH460, 48 hours, MTT; for GI50: read-out: Cell growth inhibition NCIH460 (Lung) GI50; for LC50: read-out: Cell growth inhibition NCIH460 (Lung) LC50; for IC (TGI): read-out: Cell growth inhibition NCIH460 (Lung) TGI
# Protocol: as §1, §2, §3, §4
# U251 (glioma) cells = test: Anti-cancer screen (MTT), U251; format: cell-based; details: Homo sapiens, U-251, U251, 48 hours, MTT; for GI50: read-out: Cell growth inhibition U251 (Glioma) GI50; for LC50 (concentration giving 50% net cell kill relative to the time-zero cell count): read-out: Cell growth inhibition U251 (Glioma) LC50; for IC (TGI): read-out: Cell growth inhibition U251 (Glioma) TGI
# Protocol: as §1, §2, §3, §4
# HCT 116 (colon) cells = test: Anti-cancer screen (MTT), HCT 116; format: cell-based; details: Homo sapiens, HCT-116, HCT116, 48 hours, MTT; for GI50: read-out: Cell growth inhibition HCT116 (Colon) GI50; for CC50: read-out: Cell growth inhibition HCT116 (Colon) LC50; for IC (TGI): read-out: Cell growth inhibition HCT116 (Colon) TGI
# Protocol: as §1, §2, §3, §4
SMILES,GI50 [1],HDAC inhibition % (1 μM) [2],HDAC inhibition % (10 μM) [2],GI50 (NCIH460 (lung) cells),LC50 (NCIH460 (lung) cells),IC (TGI) (NCIH460 (lung) cells),GI50 (U251 (glioma) cells),LC50 (concentration giving 50% net cell kill relative to the time-zero cell count) (U251 (glioma) cells),IC (TGI) (U251 (glioma) cells),GI50 (HCT 116 (colon) cells),CC50 (HCT 116 (colon) cells),IC (TGI) (HCT 116 (colon) cells)
"Nc1ccccc1NC(=O)c1ccc(CNC(=O)/C(=C/c2ccc(F)c(F)c2)c2ccc(F)cc2)cc1 [Compound 1, N-(2-Aminophenyl)-4-((3-(3,4-difluorophenyl)-2-(4-fluorophenyl)acrylamido)methyl)benzamide]",2.4 µM,1.2%,27.8%,2.3 µM,52 µM,5.4 µM,2.8 µM,35 µM,4.2 µM,2.2 µM,27 µM,4.9 µM
"COc1ccc(/C=C(/C(=O)NCc2ccc(C(=O)Nc3ccccc3N)cc2)c2ccccc2)cc1 [Compound 2, N-(2-Aminophenyl)-4-((3-(4-methoxyphenyl)-2-(phenyl)acrylamido)methyl)benzamide]",5 µM,2.3%,6.8%,2.9 µM,> 100 µM,8.2 µM,7.6 µM,> 100 µM,39 µM,4.4 µM,> 100 µM,9.4 µM
"Nc1ccccc1NC(=O)c1ccc(CNC(=O)/C(=C/c2ccccc2F)c2ccc(Cl)cc2)cc1 [Compound 3, N-(2-Aminophenyl)-4-((3-(2-fluorophenyl)-2-(4-chlorophenyl)acrylamido)methyl)benzamide]",6.6 µM,5.1%,16.4%,0.6 µM,> 100 µM,52 µM,16 µM,85 µM,39 µM,3.2 µM,100 µM,10 µM
"Nc1ccccc1NC(=O)c1ccc(CNC(=O)/C(=C/c2ccc(F)c(C(F)(F)F)c2)c2ccc(C(F)(F)F)cc2)cc1 [Compound 4, N-(2-Aminophenyl)-4-((3-(4-fluoro-3-trifluoromethylphenyl)-2-(4-trifluoromethylphenyl)acrylamido)methyl)benzamide]",5.3 µM,0.0%,14.2%,0.2 µM,58.5 µM,3.8 µM,11.5 µM,> 100 µM,41 µM,4.1 µM,77 µM,26 µM
"CSc1ccc(/C=C(/C(=O)NCc2ccc(C(=O)Nc3ccccc3N)cc2)c2ccc(F)cc2)cc1 [Compound 6, N-(2-Aminophenyl)-4-((3-(4-methylthiophenyl)-2-(4-fluorophenyl)acrylamido)methyl)benzamide]",4.5 µM,4.2%,25.8%,8.8 µM,90 µM,47 µM,< 0.01 µM,83.2 µM,22 µM,4.8 µM,95.8 µM,46 µM
"Nc1ccccc1NC(=O)c1ccc(CNC(=O)/C(=C/c2ccc([N+](=O)[O-])s2)c2ccc(F)cc2)cc1 [Compound 7, N-(2-Aminophenyl)-4-((3-(5-nitrothiophen-2-yl)-2-(4-fluorophenyl)acrylamido)methyl)benzamide]",9.2 µM,12.4%,19.4%,6.2 µM,73.8 µM,26.5 µM,17 µM,76 µM,34.5 µM,4.5 µM,71.2 µM,9.6 µM
